Values after ≈ are worked out from the molar mass of the structure shown.
Tests used:
[1] = Modulation of SMN2 splicing activity in myoblast cell line derived from the SMNdelta7 mouse model assessed as increase in SMN level treated for 24 hrs by ELISA relative to control; type: functional, Primary myoblast
[2] = Modulation of SMN2 splicing in myoblast cell line derived from the SMNdelta7 mouse model assessed as increase in SMN level measured as fold activation treated for 24 hrs by ELISA; type: functional, Primary myoblast
[3] = Solubility of the compound at pH 6.8 by high-throughput miniaturized shake flask solubility assay; type: physicochemical; details: buffer
[4] = Apparent permeability from basolateral to apical side in MDCK-MDR1 cells; type: ADME, cell-based, Canis lupus familiaris; details: dog
[5] = Intrinsic clearance in mouse liver microsomes; type: ADME, Microsome; details: read-out: CLH
[6] = Apparent permeability from apical to basolateral side in MDCK-MDR1 cells; type: ADME, cell-based, Canis lupus familiaris; details: dog
[7] = Intrinsic clearance in rat liver microsomes; type: ADME, Microsome; details: read-out: CLH
[8] = Drug uptake in Sprague-Dawley rat brain at 3 mg/kg, po measured after 7 hrs by HPLC-MS/MS analysis; type: ADME, organism-based; details: read-out: Drug uptake
[9] = In vivo modulation of SMN2 splicing activity in SMN C/+ allele mouse model assessed as fold increase in full length SMN protein level in brain at 50 mg/kg, po once daily for 5 days relative to control; type: functional; details: time 5 day
[10] = Drug uptake in SMN C/+ allele mouse brain at 50 mg/kg, po measured after 4 hrs; type: ADME, organism-based; details: read-out: Drug uptake
[11] = Drug uptake in SMN C/+ allele mouse plasma at 50 mg/kg, po measured after 4 hrs; type: ADME, organism-based
[12] = Apparent permeability across apical to basolateral side in human Caco-2 cells; type: ADME, cell-based
[13] = Half life in Sprague-Dawley rat at 1 mg/kg, iv and 3 mg/kg, po measured up to 7 hrs by HPLC-MS/MS analysis; type: ADME, organism-based; details: in vivo
[14] = Apparent permeability across basolateral to apical side in human Caco-2 cells; type: ADME, cell-based
[15] = AUC (extrapolated) in Sprague-Dawley rat at 3 mg/kg, po measured up to 7 hrs by HPLC-MS/MS analysis; type: ADME, organism-based; set-up: route oral, dose 3 mg/kg, time <=7; details: in vivo
[16] = Clearance in Sprague-Dawley rat at 1 mg/kg, iv and 3 mg/kg, po measured up to 7 hrs by HPLC-MS/MS analysis; type: ADME, organism-based; details: in vivo
[17] = Volume of distribution at steady state in Sprague-Dawley rat at 1 mg/kg, iv and 3 mg/kg, po measured up to 7 hrs by HPLC-MS/MS analysis; type: ADME, organism-based; details: in vivo, read-out: Vdss
[18] = Cmax in Sprague-Dawley rat at 1 mg/kg, iv and 3 mg/kg, po measured up to 7 hrs by HPLC-MS/MS analysis; type: ADME, organism-based; set-up: dose 3 mg/kg, time <=7; details: in vivo

In the case of `CN(c1nnc(-c2cc(-n3cccn3)ccc2O)s1)C1CC(C)(C)NC(C)(C)C1`, the “fold change (FC)” value [1] is reported as 2.3 and the EC50 [2] is reported as 1 µM.
With `CN(c1nnc(-c2c(O)cc(-c3cn[nH]c3)c(F)c2F)s1)C1CC(C)(C)NC(C)(C)C1` the “fold change (FC)” value [1] was 2.7, the solubility thermodynamic [3] was 150 µM (≈ 67.3 µg/mL) and the Papp B→A [4] was 230 nm/s. It also gave an EC50 [2] of 0.003 µM, a microsomal CLint [5] of 67 µL/min/mg and a Papp A→B [6] of 80 nm/s.
For `COc1cc(-c2ccn(C)c(=O)c2)ccc1-c1nnc(N(C)C2CC(C)(C)NC(C)(C)C2)s1`, the “fold change (FC)” value [1] was 3.2 and the EC50 [2] was 0.13 µM.
In the case of `CN(c1nnc(-c2ccc(-c3cnn(C)c3)cn2)s1)C1CC(C)(C)NC(C)(C)C1`, the “fold change (FC)” value [1] is reported as 2.3 and the EC50 [2] is reported as 0.68 µM.
With `CN(c1nnc(-c2ccc(-c3cn[nH]c3)cc2F)s1)C1CC(C)(C)NC(C)(C)C1` the “fold change (FC)” value [1] was 3.1, the solubility thermodynamic [3] was over 1000 µM and the Papp B→A [4] was 150 nm/s. For the same compound, the EC50 [2] was 0.043 µM, the microsomal CLint [7] was 59 µL/min/mg and the Papp A→B [6] was 40 nm/s. It also gave a concentration at 7 h [8] of 0.066 µM.
For `CN(c1nnc(-c2ccc(-c3cn[nH]c3)cc2Cl)s1)C1CC(C)(C)NC(C)(C)C1`, the “fold change (FC)” value [1] was 2.5, the solubility thermodynamic [3] was 44000 µM (≈ 19000 µg/mL) and the Papp B→A [4] was 120 nm/s. It also gave an EC50 [2] of 0.034 µM, a microsomal CLint [7] of 24 µL/min/mg and a Papp A→B [6] of 30 nm/s. It also gave a concentration at 7 h [8] of 0.24 µM.
In the case of `CN(c1nnc(-c2ccc(C#N)cc2O)s1)C1CC(C)(C)NC(C)(C)C1`, the “fold change (FC)” value [1] is reported as 1.9 and the EC50 [2] is reported as 8.8 µM.
In the case of `CN(c1nnc(-c2cc3cc(C#N)ccc3s2)s1)C1CC(C)(C)NC(C)(C)C1`, the “fold change (FC)” value [1] is reported as 2.7, the solubility thermodynamic [3] is reported as 170 µM (≈ 70 µg/mL) and the EC50 [2] is reported as 0.54 µM. It also gave a microsomal CLint [7] of 12 µL/min/mg.
With `CN(c1nnc(-c2cc(F)c(-c3cn[nH]c3)cc2Cl)s1)C1CC(C)(C)NC(C)(C)C1` the “fold change (FC)” value [1] was 3.2, the solubility thermodynamic [3] was 34 µM (≈ 15.3 µg/mL) and the Papp B→A [4] was 230 nm/s. The EC50 [2] was 0.048 µM, the microsomal CLint [7] was 54 µL/min/mg and the Papp A→B [6] was 40 nm/s. For the same compound, the concentration at 7 h [8] was 0.185 µM.
In the case of `COc1cc(C#N)ccc1-c1nnc(N(C)C2CC(C)(C)NC(C)(C)C2)s1`, the “fold change (FC)” value [1] is reported as 2.2 and the EC50 [2] is reported as 1 µM.
With `CN(c1nnc(-c2ccc(-c3cn[nH]c3)c(F)c2F)s1)C1CC(C)(C)NC(C)(C)C1` the “fold change (FC)” value [9] was 1.6, the “fold change (FC)” value [1] was 3 and the solubility thermodynamic [3] was 48 µM (≈ 20.8 µg/mL). It also gave a Papp B→A [4] of 80 nm/s, an EC50 [2] of 0.033 µM and a microsomal CLint [7] of 46 µL/min/mg. It also gave a Papp A→B [6] of 30 nm/s, a concentration at 4 h [10] of 2.5 µM and a concentration at 4 h [11] of 3.6 µM. The concentration at 7 h [8] was 0.498 µM.
For `CN(c1nnc(-c2sc3ccccc3c2Cl)s1)C1CC(C)(C)NC(C)(C)C1`, the “fold change (FC)” value [1] was 2.8, the solubility thermodynamic [3] was 240 µM (≈ 101 µg/mL) and the EC50 [2] was 0.53 µM. For the same compound, the microsomal CLint [7] was 20 µL/min/mg.
For `CN(c1nnc(-c2cc(F)c(-c3cn[nH]c3)cc2F)s1)C1CC(C)(C)NC(C)(C)C1`, the “fold change (FC)” value [1] was 3.1, the solubility thermodynamic [3] was 122 µM (≈ 52.8 µg/mL) and the Papp B→A [4] was 160 nm/s. For the same compound, the EC50 [2] was 0.02 µM, the microsomal CLint [7] was 48 µL/min/mg and the Papp A→B [6] was 30 nm/s. It also gave a concentration at 7 h [8] of 0.141 µM.
For `CN(c1nnc(-c2cc3ccccc3s2)s1)C1CC(C)(C)NC(C)(C)C1`, the “fold change (FC)” value [1] was 1.7, the solubility thermodynamic [3] was over 1000 µM and the EC50 [2] was 4.47 µM. The microsomal CLint [7] was under 3 µL/min/mg.
In the case of `CN(c1ccc(-c2cc3ccccc3s2)nn1)C1CC(C)(C)NC(C)(C)C1`, the solubility thermodynamic [3] is reported as 980 µM (≈ 373 µg/mL) and the microsomal CLint [7] is reported as 23 µL/min/mg.
For `CN(c1nnc(-c2ccc(-n3cccn3)cc2)s1)C1CC(C)(C)NC(C)(C)C1`, the “fold change (FC)” value [1] was 2.8 and the EC50 [2] was 1.1 µM.
In the case of `Cc1cc(-c2ccn(C)c(=O)c2)ccc1-c1nnc(N(C)C2CC(C)(C)NC(C)(C)C2)s1`, the “fold change (FC)” value [1] is reported as 2.6 and the EC50 [2] is reported as 1.1 µM.
For `CN(c1nnc(-c2ccc(-n3cccn3)cc2O)s1)C1CC(C)(C)NC(C)(C)C1`, the “fold change (FC)” value [1] was 2.8 and the EC50 [2] was 0.17 µM.
For `CN(c1nnc(-c2c(O)cc(-c3cn[nH]c3)cc2Cl)s1)C1CC(C)(C)NC(C)(C)C1`, the “fold change (FC)” value [1] was 2.5, the solubility thermodynamic [3] was 220 µM (≈ 98.3 µg/mL) and the EC50 [2] was 0.003 µM. For the same compound, the microsomal CLint [5] was 116 µL/min/mg.
With `CN(c1nnc(-c2c(O)cc(-c3cn[nH]c3)cc2F)s1)C1CC(C)(C)NC(C)(C)C1` the “fold change (FC)” value [1] was 2.6, the solubility [3] was “Insoluble” and the Papp B→A [4] was 410 nm/s. It also gave an EC50 [2] of 0.006 µM, a microsomal CLint [5] of 50 µL/min/mg and a Papp A→B [6] of 100 nm/s.
In the case of `CN(c1nnc(-c2sc3ccc(C#N)cc3c2Cl)s1)C1CC(C)(C)NC(C)(C)C1`, the “fold change (FC)” value [1] is reported as 2.5, the solubility thermodynamic [3] is reported as 51 µM (≈ 22.7 µg/mL) and the EC50 [2] is reported as 0.092 µM. The microsomal CLint [7] was under 25 µL/min/mg.
Compound `CN(c1nnc(-c2ccc(-c3cnn(C)c3)cc2O)s1)C1CC(C)(C)NC(C)(C)C1` has a Papp A→B [12] of 24 nm/s, a half-life [13] of 2 h and a Papp B→A [14] of 25 nm/s. The “fold change (FC)” value [1] was 3.1, the EC50 [2] was 0.032 µM and the AUC at 7 h [15] was 554 nM·h. It also gave a clearance [16] of 4.26 L/h/kg, a Vd [17] of 7 L/kg and a Cmax [18] of 0.05 µM.
In the case of `COc1cc(-c2cn[nH]c2)ccc1-c1nnc(N(C)C2CC(C)(C)NC(C)(C)C2)s1`, the “fold change (FC)” value [1] is reported as 2.9 and the EC50 [2] is reported as 0.038 µM.
For `COc1cc(-n2cccn2)ccc1-c1nnc(N(C)C2CC(C)(C)NC(C)(C)C2)s1`, the Papp A→B [12] was 138 nm/s, the half-life [13] was 1.9 h and the Papp B→A [14] was 69 nm/s. The “fold change (FC)” value [1] was 2.5, the EC50 [2] was 0.062 µM and the AUC at 7 h [15] was 895 nM·h. For the same compound, the clearance [16] was 4.32 L/h/kg, the Vd [17] was 10.9 L/kg and the Cmax [18] was 0.221 µM.
`CN(c1nnc(-c2ccc(-c3ccn(C)c(=O)c3)cc2O)s1)C1CC(C)(C)NC(C)(C)C1` gave a Papp A→B [12] of 37 nm/s, a half-life [13] of 1.3 h and a Papp B→A [14] of 68 nm/s. The “fold change (FC)” value [1] was 3.4, the EC50 [2] was 0.061 µM and the AUC at 7 h [15] was 227 nM·h. It also gave a clearance [16] of 9.78 L/h/kg, a Vd [17] of 10.7 L/kg and a Cmax [18] of 0.038 µM.
With `CN(c1nnc(-c2ccc(-c3cn[nH]c3)cc2O)s1)C1CC(C)(C)NC(C)(C)C1` the “fold change (FC)” value [1] was 2.5 and the EC50 [2] was 0.4 µM.
In the case of `COc1cc(-c2cnn(C)c2)ccc1-c1nnc(N(C)C2CC(C)(C)NC(C)(C)C2)s1`, the “fold change (FC)” value [1] is reported as 2.5 and the EC50 [2] is reported as 0.044 µM.
For `CN(c1nnc(-c2ccc(-c3cnn(C)c3)cc2C(F)(F)F)s1)C1CC(C)(C)NC(C)(C)C1`, the “fold change (FC)” value [1] was 1.3 and the EC50 [2] was over 30 µM.
In the case of `CN(c1nnc(-c2ccc(-c3ccn(C)c(=O)c3)cc2OC(F)(F)F)s1)C1CC(C)(C)NC(C)(C)C1`, the “fold change (FC)” value [1] is reported as 2.2 and the EC50 [2] is reported as 0.9 µM.

From ChEMBL document CHEMBL4808177, “Use of Intramolecular 1,5-Sulfur-Oxygen and 1,5-Sulfur-Halogen Interactions in the Design of N-Methyl-5-aryl-N-(2,2,6,6-tetramethylpiperidin-4-yl)-1,3,4-thiadiazol-2-amine SMN2 Splicing Modulators” (J Med Chem, 2021)
